For data set [1], the target named is T1, c-Met (cytoplasmic domain) (Homo sapiens, UniProt P08581).
T1 construct: Reactions were initiated with 30 ng/mL c-Met (cytoplasmic domain, Invitrogen Corporation #PV3143); purchased Invitrogen Corporation PV3143
The data set can be described thus: c-Met Kinase Assay (ELISA/TRF, PLC-γ substrate). The note with it: 3 μM ATP (Km level); read-out: c-Met Kinase Inhibition (IC50). The class given is biochemical. The method, boiled down: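 c-Met cytoplasmic domain (30 ng/mL) phosphorylates plate-coated GST–PLC-γ for 15 min at 37 °C. Phosphotyrosine detected with Eu-labeled PT66 antibody by time-resolved fluorescence. IC50 from variable-slope sigmoidal fit of % inhibition vs log concentration.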
Background: In an ELISA, binding on a coated surface is turned into a signal by an enzyme label.

Data set [2] deals with T2, c-Met (phospho-c-Met) in HT29 cells (Homo sapiens, UniProt P08581).
T2 construct: endogenous in cells; host or cells: HT29, A549 (HGF-stimulated), GTL-16
As to the kind of experiment: c-Met Cellular Activity/Autophosphorylation Assay, HT29 cells. Type of data set: cell-based. To be noted: for inhibition at 1 µM: HT-29, 1 μM compound, read-out: c-Met autophosphorylation inhibition score, HT29 Cells (1 μM); for inhibition at 3 µM: HT-29, 3 μM compound, read-out: c-Met autophosphorylation inhibition score, HT29 Cells (3 μM). The protocol:
(§1) HT29 and GTL-16 cells were serum starved for one hour in media containing 0.05% BSA and varying concentrations of Example compounds (1-10 μM). A549 cells were serum starved overnight in media containing 0.05% BSA then treated for one hour with Example compounds followed by a 15 minute stimulation with 50 ng/mL HGF (Peprotech, Rocky Hill, N.J.), respectively. Samples were resolved by electrophoresis on a 3-8% Tris-Acetate gel (40 ma/gel) and then transferred to a nitrocellulose membrane. Membranes were blocked for one hour at room temperature in Odyssey Blocking Buffer (Licor #927-40000) diluted 1:1 with 1×TBS. Membranes were then co-incubated overnight at 4° C. with primary antibodies [total Met (Cell Signaling, #3127) and Phospho-Met (Biosource, #44-888G) 1:1000 each in Odyssey Blocking Buffer diluted 1:1 with 1×TBS-T 0.05%]. The next day, membranes were washed and co-incubated with secondary antibodies [Goat anti mouse IRDye800 (Rockland, #610-132-121) and Goat anti rabbit Alexa fluor 700 (Molecular Probes, #A21038) 1:10,000] in Odyssey Blocking Buffer diluted 1:1 with 1×TBS-T 0.05% for one hour at room temperature protected from light. Blots were then washed and read on the Odyssey Infrared Imager. Total c-Met signal was visualized at 800 nm detection and phospho-c-Met signal was visualized at 700 nm detection.

The target in data set [3] is T3, c-Met (phospho-c-Met) in A549 cells (Homo sapiens, UniProt P08581).
T3 construct: endogenous in cells; host or cells: HT29, A549 (HGF-stimulated), GTL-16
As to the kind of experiment: c-Met Cellular Activity/Autophosphorylation Assay, A549 cells (HGF stimulated). The class given is cell-based. The note with it: 50 ng/mL HGF; for inhibition at 1 µM: 1 μM compound, read-out: c-Met autophosphorylation inhibition score, A549 Cells (1 μM); for inhibition at 3 µM: 3 μM compound, read-out: c-Met autophosphorylation inhibition score, A549 Cells (3 μM). As to the method:
as §1

The target of data set [4] is baculovirus-expressed ALK (Homo sapiens, UniProt Q9UM73). The data set can be described thus: ALK Kinase Assay (ELISA/TRF, PLC-γ substrate). Also: 1 µM ATP (Km level). The class given is biochemical. To be noted: read-out: ALK Kinase Inhibition (IC50). The method, boiled down: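 Plates coated with GST-PLC-γ substrate (10 µg/mL in TBS), then reaction started with 30 ng/ml baculovirus-expressed ALK, 15 min at 37 °C. Phosphotyrosine detected by Eu-labeled PT66 antibody and time-resolved fluorescence. IC50 from variable-slope sigmoidal fit of percent inhibition versus log concentration.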

This note sets out measurements from patent publication US7601716B2, “Pyridopyrazines and derivatives thereof as ALK and c-Met inhibitors” (Cephalon, Inc., priority 2006, dated 2009).

Sequence of baculovirus-expressed ALK (Q9UM73 19-1620): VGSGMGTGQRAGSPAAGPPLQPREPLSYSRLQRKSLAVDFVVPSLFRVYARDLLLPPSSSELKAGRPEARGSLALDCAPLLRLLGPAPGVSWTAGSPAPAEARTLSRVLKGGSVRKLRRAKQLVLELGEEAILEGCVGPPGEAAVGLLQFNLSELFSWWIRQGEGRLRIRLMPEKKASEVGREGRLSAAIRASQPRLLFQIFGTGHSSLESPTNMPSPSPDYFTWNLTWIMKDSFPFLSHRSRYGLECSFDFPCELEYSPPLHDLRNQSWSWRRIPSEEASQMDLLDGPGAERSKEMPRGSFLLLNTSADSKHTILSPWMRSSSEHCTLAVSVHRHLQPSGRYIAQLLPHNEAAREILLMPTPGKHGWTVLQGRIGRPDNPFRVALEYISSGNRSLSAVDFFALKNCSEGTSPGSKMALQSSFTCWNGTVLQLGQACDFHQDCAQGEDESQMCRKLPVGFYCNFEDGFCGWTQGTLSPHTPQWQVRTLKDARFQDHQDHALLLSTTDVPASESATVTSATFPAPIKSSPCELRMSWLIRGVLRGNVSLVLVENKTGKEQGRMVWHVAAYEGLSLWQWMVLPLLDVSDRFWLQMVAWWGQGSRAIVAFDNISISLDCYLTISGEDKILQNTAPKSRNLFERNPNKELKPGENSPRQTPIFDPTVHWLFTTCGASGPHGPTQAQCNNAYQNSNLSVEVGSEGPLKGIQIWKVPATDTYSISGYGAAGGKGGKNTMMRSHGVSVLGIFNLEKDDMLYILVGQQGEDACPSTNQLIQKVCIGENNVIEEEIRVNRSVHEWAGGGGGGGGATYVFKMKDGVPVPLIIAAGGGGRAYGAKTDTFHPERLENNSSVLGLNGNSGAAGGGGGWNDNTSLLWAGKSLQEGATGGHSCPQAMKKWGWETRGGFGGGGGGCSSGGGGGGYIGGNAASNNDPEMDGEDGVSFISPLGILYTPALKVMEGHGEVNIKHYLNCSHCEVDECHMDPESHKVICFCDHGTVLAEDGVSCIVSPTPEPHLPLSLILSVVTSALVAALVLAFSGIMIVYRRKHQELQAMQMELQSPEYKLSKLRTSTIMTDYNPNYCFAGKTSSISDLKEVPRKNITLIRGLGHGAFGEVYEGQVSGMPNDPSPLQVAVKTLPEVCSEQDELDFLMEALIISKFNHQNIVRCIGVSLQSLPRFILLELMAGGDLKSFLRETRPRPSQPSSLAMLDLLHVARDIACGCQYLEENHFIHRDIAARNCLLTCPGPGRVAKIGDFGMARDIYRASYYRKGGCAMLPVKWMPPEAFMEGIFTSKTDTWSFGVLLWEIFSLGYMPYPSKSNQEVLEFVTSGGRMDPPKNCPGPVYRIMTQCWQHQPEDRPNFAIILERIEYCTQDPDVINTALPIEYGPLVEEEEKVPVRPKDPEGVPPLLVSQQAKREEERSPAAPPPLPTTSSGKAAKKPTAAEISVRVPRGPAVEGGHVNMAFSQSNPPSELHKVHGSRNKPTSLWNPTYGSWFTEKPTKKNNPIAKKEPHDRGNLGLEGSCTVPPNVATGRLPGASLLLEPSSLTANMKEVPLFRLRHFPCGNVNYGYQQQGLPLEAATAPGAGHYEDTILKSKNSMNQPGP
T1 sequence (P08581 956-1390 limits assumed): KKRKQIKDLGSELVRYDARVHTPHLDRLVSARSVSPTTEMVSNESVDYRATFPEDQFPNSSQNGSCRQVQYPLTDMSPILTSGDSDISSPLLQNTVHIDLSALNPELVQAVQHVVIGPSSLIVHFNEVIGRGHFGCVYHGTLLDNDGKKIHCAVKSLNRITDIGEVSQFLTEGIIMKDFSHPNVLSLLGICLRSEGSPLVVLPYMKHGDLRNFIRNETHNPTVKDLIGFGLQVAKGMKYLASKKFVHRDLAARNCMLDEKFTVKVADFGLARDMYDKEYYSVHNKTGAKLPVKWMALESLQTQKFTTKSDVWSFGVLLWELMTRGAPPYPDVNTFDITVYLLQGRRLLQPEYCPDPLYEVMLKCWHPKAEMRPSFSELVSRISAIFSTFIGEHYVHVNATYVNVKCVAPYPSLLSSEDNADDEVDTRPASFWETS
T3 sequence (P08581 25-1390): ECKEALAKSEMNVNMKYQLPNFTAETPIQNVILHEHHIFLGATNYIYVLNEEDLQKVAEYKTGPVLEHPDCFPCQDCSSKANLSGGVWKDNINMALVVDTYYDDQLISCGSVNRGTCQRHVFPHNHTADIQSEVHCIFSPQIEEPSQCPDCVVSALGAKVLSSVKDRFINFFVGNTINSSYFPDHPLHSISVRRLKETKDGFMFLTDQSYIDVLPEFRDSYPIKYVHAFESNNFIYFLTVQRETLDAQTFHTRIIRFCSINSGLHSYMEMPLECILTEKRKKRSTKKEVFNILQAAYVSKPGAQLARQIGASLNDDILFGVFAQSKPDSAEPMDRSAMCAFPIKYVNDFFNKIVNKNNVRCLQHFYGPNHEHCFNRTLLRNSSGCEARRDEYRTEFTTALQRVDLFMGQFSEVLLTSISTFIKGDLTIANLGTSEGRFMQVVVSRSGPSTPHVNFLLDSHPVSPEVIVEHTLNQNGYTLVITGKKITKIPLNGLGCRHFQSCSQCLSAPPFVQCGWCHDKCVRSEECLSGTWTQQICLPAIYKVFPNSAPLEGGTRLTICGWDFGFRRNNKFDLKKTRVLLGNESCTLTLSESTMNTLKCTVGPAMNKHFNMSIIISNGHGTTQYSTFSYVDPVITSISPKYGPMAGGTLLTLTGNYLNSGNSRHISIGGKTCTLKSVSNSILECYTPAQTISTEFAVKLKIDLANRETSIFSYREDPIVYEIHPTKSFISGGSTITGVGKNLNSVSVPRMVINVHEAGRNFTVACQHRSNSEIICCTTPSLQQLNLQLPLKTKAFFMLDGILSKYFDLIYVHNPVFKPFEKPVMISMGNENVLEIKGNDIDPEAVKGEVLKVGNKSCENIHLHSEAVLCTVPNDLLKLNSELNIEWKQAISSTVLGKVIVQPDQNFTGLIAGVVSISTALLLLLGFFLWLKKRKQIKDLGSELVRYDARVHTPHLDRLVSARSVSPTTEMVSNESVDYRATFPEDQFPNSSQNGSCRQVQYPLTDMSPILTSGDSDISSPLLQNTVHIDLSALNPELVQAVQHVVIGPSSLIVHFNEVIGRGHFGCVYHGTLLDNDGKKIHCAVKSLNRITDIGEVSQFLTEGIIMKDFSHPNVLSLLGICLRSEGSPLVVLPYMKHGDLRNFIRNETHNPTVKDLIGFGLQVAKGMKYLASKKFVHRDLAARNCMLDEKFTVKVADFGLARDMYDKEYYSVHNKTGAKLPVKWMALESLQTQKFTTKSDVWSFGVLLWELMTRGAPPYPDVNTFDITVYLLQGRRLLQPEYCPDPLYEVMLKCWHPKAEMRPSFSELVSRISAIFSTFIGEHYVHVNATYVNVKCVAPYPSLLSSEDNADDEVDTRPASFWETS
T2 sequence (P08581 25-1390): as above

As for `O=C(c1ccc(-c2cnc3c(c2)N(Cc2cc(Cl)ccc2C(F)(F)F)CCN3)cc1)N1CCC(N2CCOCC2)CC1` [Example 287, (4-{1-[5-Chloro-2-(trifluoromethyl)benzyl]-1,2,3,4-tetrahydropyrido[2,3-b]pyrazin-7-yl}phenyl)-(4-morpholin-4-yl-piperidin-1-yl)methanone], the IC50 (as a rule, the concentration at which inhibition is half-maximal) was 100 to 1000 nM in data set [1] and under 100 nM in data set [4]. The inhibition at 1 µM in data set [2] and in data set [3] was 0 to 25% throughout. The inhibition (commonly the change of the read-out against control, counted positive when it falls) at 3 µM lay within 26 to 50% in data set [2] and 0 to 25% in data set [3].

For the compound `CC(C)(C)OC(=O)NCC#Cc1cnc2c(c1)N(Cc1cc(Cl)ccc1Cl)CCN2` [Example 168, {3-[1-(2,5-Dichlorobenzyl)-1,2,3,4-tetrahydropyrido[2,3-b]pyrazin-7-yl]prop-2-ynyl}carbamic acid tert-butyl ester], the IC50 in data set [1] was in the range of 10000 to 100000 nM; in data set [4], 1000 to 10000 nM. Besides, the inhibition at 1 µM in data set [2] and in data set [3] was 0 to 25% each time. Also, the inhibition at 3 µM is 26 to 50% in data set [2] and 0 to 25% in data set [3].

For the compound `Nc1ccc(-c2cnc3c(c2)N(Cc2c(F)ccc(F)c2Cl)CCN3)cn1` [Example 184, 5-[1-(2-Chloro-3,6-difluorobenzyl)-1,2,3,4-tetrahydropyrido[2,3-b]pyrazin-7-yl]-pyridin-2-ylamine], the melting point (usually the temperature, or range, at which the solid turns liquid) is over 200 °C. Moreover, the half-maximal inhibitory concentration (IC50) in data set [1] was 1000 to 10000 nM. In data set [2], the inhibition at 1 µM fell in the range of 51 to 75% and the inhibition at 3 µM is 76 to 100%. Further, in data set [4], the IC50 was under 100 nM.

Take `O=C(O)c1ccc(-c2cnc3c(c2)N(Cc2cc(F)ccc2F)CCN3)cn1` [Example 72, 5-[1-(2,5-Difluorobenzyl)-1,2,3,4-tetrahydropyrido[2,3-b]pyrazin-7-yl]-pyridine-2-carboxylic acid]: the melting point is 240 °C (dec.). Moreover, in data set [1], the 50% inhibitory concentration (IC50) lay in the range of 1000 to 10000 nM. Also, in data set [2], the inhibition at 1 µM was in the range of 26 to 50% and the inhibition at 3 µM was 26 to 50%. For the same compound, in data set [3], the inhibition at 1 µM lay within 0 to 25% and the inhibition at 3 µM is 0 to 25%. In addition, the IC50 in data set [4] lay within 100 to 1000 nM.

Compound `O=C(c1ccc(-c2cnc3c(c2)N(Cc2cc(F)ccc2F)CCN3)cn1)N1CCOCC1` [Example 76, {5-[1-(2,5-Difluorobenzyl)-1,2,3,4-tetrahydropyrido[2,3-b]pyrazin-7-yl]-pyridin-2-yl}morpholin-4-yl-methanone] yielded a melting point of 111 to 113 °C. Also, the IC50 in data set [1] lay within 1000 to 10000 nM. In data set [2], the inhibition at 1 µM was 0 to 25% and the inhibition at 3 µM lay in the range of 26 to 50%. Besides, in data set [3], the inhibition at 1 µM lay in the range of 0 to 25% and the inhibition at 3 µM is 0 to 25%. For the same compound, the IC50 in data set [4] was 100 to 1000 nM.

Turning to `CN1CCN(c2ccc(-c3cnc4c(c3)N(S(=O)(=O)c3cc(F)ccc3F)CCN4)cn2)CC1` [Example 122, 1-(2,5-Difluorobenzenesulfonyl)-7-[6-(4-methylpiperazin-1-yl)pyridin-3-yl]-1,2,3,4-tetrahydropyrido[2,3-b]pyrazine], the half-inhibitory concentration (IC50) in data set [1] is 1000 to 10000 nM; in data set [4] it was 100 to 1000 nM. In addition, the figures for the inhibition at 1 µM in data set [2] and in data set [3] were 26 to 50% and 0 to 25%, respectively. Further, the inhibition at 3 µM in data set [2] and in data set [3] was 26 to 50% throughout.

As for `CN1CCN(C(=O)c2ccc(-c3cnc4c(c3)N(Cc3c(F)ccc(F)c3Cl)CCN4)cc2)CC1` [Example 104, {4-[1-(2-Chloro-3,6-difluorobenzyl)-1,2,3,4-tetrahydropyrido[2,3-b]pyrazin-7-yl]phenyl}-(4-methylpiperazin-1-yl)methanone], the IC50 in data set [1] was 100 to 1000 nM; in data set [4], under 100 nM. Also, the inhibition at 1 µM in data set [2] was in the range of 0 to 25%. Also, in data set [2], the inhibition at 3 µM lay within 51 to 75%.

As to `CN1CCN(c2ccc(-c3cnc4c(c3)N(Cc3cc(Cl)ccc3C(F)(F)F)CCN4)cn2)CC1` [Example 118, 1-(5-Chloro-2-trifluoromethylbenzyl)-7-[6-(4-methylpiperazin-1-yl)pyridin-3-yl]-1,2,3,4-tetrahydropyrido[2,3-b]pyrazine], in data set [2], the inhibition at 1 µM was 26 to 50% and the inhibition at 3 µM lay in the range of 51 to 75%. For the same compound, in data set [3], the inhibition at 1 µM lay in the range of 0 to 25% and the inhibition at 3 µM lay within 26 to 50%.

Take `CN1CCN(c2ccc(-c3cnc4c(c3)N(Cc3cc(C(F)(F)F)ccc3Cl)CCN4)cn2)CC1` [Example 120, 1-(2-Chloro-5-trifluoromethylbenzyl)-7-[6-(4-methylpiperazin-1-yl)pyridin-3-yl]-1,2,3,4-tetrahydropyrido[2,3-b]pyrazine]: the results for the half-inhibitory concentration (IC50) in data set [1] and in data set [4] were 1000 to 10000 nM and 100 to 1000 nM, respectively. For the same compound, the inhibition at 1 µM in data set [2] fell in the range of 26 to 50%; in data set [3], 0 to 25%. For the same compound, the inhibition at 3 µM in data set [2] and in data set [3] was 26 to 50% throughout.

`Fc1ccc(F)c(CN2CCNc3ncc(-c4ccnc(N5CCOCC5)c4F)cc32)c1Cl` [Example 102, 1-(2-Chloro-3,6-difluorobenzyl)-7-(3-fluoro-2-morpholin-4-yl-pyridin-4-yl)-1,2,3,4-tetrahydropyrido[2,3-b]pyrazine]: the IC50 in data set [1] fell in the range of 1000 to 10000 nM; in data set [4], 100 to 1000 nM. For the same compound, the inhibition at 1 µM in data set [2] lay in the range of 26 to 50%; in data set [3], 0 to 25%. Further, the inhibition at 3 µM lay in the range of 51 to 75% in data set [2] and 26 to 50% in data set [3].

The compound `CCOC(=O)c1ccc(-c2cnc3c(c2)N(C(=O)c2ccccc2)CCN3)cc1` [Example 44, 4-(1-Benzoyl-1,2,3,4-tetrahydropyrido[2,3-b]pyrazin-7-yl)benzoic acid ethyl ester] came in with a melting point of 177 to 178 °C. Moreover, the IC50 in data set [1] was 10000 to 100000 nM. Also, the IC50 in data set [4] was over 100000 nM.

`CN1CCN(c2ccc(-c3cnc4c(c3)N(S(=O)(=O)c3ccccc3Cl)CCN4)cn2)CC1` [Example 126, 1-(2-Chlorobenzenesulfonyl)-7-[6-(4-methylpiperazin-1-yl)pyridin-3-yl]-1,2,3,4 tetrahydropyrido[2,3-b]pyrazine] registered a melting point of 164 to 165 °C. Moreover, in data set [1], the IC50 is 1000 to 10000 nM. For the same compound, in data set [4], the IC50 is 100 to 1000 nM.

On to `O=C(O)c1cnc2c(c1)N(Cc1cc(Cl)ccc1Cl)CCN2` [Example 128, 1-(2,5-Dichlorobenzyl)-1,2,3,4-tetrahydropyrido[2,3-b]pyrazine-7-carboxylic acid], for which the melting point is 273 °C (dec.). Further, the IC50 in data set [1] was 10000 to 100000 nM. Also, the IC50 in data set [4] was over 100000 nM.

Compound `Ic1cnc2c(c1)NCCN2` [Example 40, 7-Iodo-1,2,3,4-tetrahydropyrido[2,3-b]pyrazine] displayed a melting point of 126 to 128 °C. Besides, the IC50 in data set [1] was over 100000 nM. Further, in data set [4], the IC50 was over 100000 nM.

The compound `CC1(C)Nc2ncc(I)cc2N(Cc2cc(F)ccc2F)C1=O` [Example 92, 1-(2,5-Difluorobenzyl)-7-iodo-3,3-dimethyl-3,4-dihydro-1H-pyrido[2,3-b]pyrazin-2-one] gave a melting point of 198 to 201 °C. Further, the half-maximal inhibitory concentration (IC50) in data set [1] is over 100000 nM. In addition, the IC50 in data set [4] was over 100000 nM.
